Data from patent US9815802B2, “Herbicidally active N-(1-methyltetrazol-5-yl)benzoic acid amides” (BAYER CROPSCIENCE AKTIENGESELLSCHAFT, priority 2014, dated 2017).

Legend:
Assay type in all cases: in vivo
Setaria viridis [1] = experiment: Pre-emergence herbicidal action against SETVI; conditions: dosage 320 g/ha
Excerpt: (§1) Pre-Emergence Herbicidal Action Against Harmful Plants
(§2) Seeds of monocotyledonous and dicotyledonous weed plants and crop plants are laid out in wood-fiber pots in sandy loam and covered with soil. The compounds of the invention, formulated in the form of wettable powders (WP) or as emulsion concentrates (EC), are then applied to the surface of the covering soil in the form of an aqueous suspension or emulsion at a water application rate equating to 600 to 800 I/ha, with addition of 0.2% wetting agent. After the treatment, the pots are placed in a greenhouse and kept under good growth conditions for the trial plants. The damage to the test plants is scored visually after a test period of 3 weeks by comparison with untreated controls (herbicidal activity in percent (%): 100% activity=the plants have died, 0% activity=like control plants). For example, compounds no. 1-001, 1-002, 1-003, 1-004, 1-011, 1-012, 1-021, 1-022, 1-031, 1-032, 1-041, 1-042 and 1-044 at an application rate of 320 g/ha each have at least 80% efficacy against Echinocloa crusgalli, Abutilon theophrasti, Amaranthus retroflexus and Matricaria inodora.

Stellaria media [2] = experiment: Pre-emergence herbicidal action against STEME; conditions: dosage 320 g/ha
Excerpt: as §1, §2

Avena fatua [3] = experiment: Pre-emergence herbicidal action against AVEFA; conditions: dosage 320 g/ha
Excerpt: as §1, §2

Pharbitis purpureum = experiment: Pre-emergence herbicidal action against PHBPU; conditions: dosage 320 g/ha
Excerpt: as §1, §2

Polygonum convolvulus [4] = experiment: Pre-emergence herbicidal action against POLCO; conditions: dosage 320 g/ha
Excerpt: as §1, §2

Echinochloa crus galli = experiment: Post-emergence herbicidal action against ECHCG; conditions: dosage 80 g/ha
Experimental: (§3) Post-Emergence Herbicidal Action Against Harmful Plants Seeds of monocotyledonous and dicotyledonous weed and crop plants are laid out in sandy loam in wood-fiber pots, covered with soil and cultivated in a greenhouse under good growth conditions. 2 to 3 weeks after sowing, the test plants are treated at the one-leaf stage. The compounds of the invention, formulated in the form of wettable powders (WP) or as emulsion concentrates (EC), are then sprayed onto the green parts of the plants in the form of an aqueous suspension or emulsion at a water application rate equating to 600 to 800 I/ha, with addition of 0.2% wetting agent. After the test plants have been left to stand in the greenhouse under optimal growth conditions for about 3 weeks, the action of the preparations is assessed visually in comparison to untreated controls (herbicidal action in percent (%): 100% activity=the plants have died, 0% activity=like control plants).

Setaria viridis [5] = experiment: Post-emergence herbicidal action against SETVI
Experimental: as §3

Abutilon theophrasti = experiment: Post-emergence herbicidal action against ABUTH; conditions: dosage 80 g/ha
Experimental: as §3

Avena fatua [6] = experiment: Post-emergence herbicidal action against AVEFA
Experimental: as §3

Alopecurus myosuroides = experiment: Post-emergence herbicidal action against ALOMY
Experimental: as §3

Stellaria media [7] = experiment: Post-emergence herbicidal action against STEME; conditions: dosage 5 g/ha
Experimental: as §3

Polygonum convolvulus [8] = experiment: Post-emergence herbicidal action against POLCO
Experimental: as §3

CCOSc1c(C)ccc(C(=O)Nc2nnnn2C)c1[N+](=O)[O-] [4-799]
Activity against SETVI (Setaria viridis [1]): 0%
Activity against STEME (Stellaria media [2]): 70%

COc1c(C(=O)Nc2nnnn2C)ccc(C)c1S(C)(=O)=O [4-811]
Activity against AVEFA (Avena fatua [3]): 60%
Activity against PHBPU (Pharbitis purpureum): 70%

CCOSc1c(CC)ccc(C(=O)Nc2nnnn2C)c1CC [drawing 36]
Activity against PHBPU (Pharbitis purpureum): 100%
Activity against POLCO (Polygonum convolvulus [4]): 100%

CCc1c(C(=O)Nc2nnnn2C)ccc(Cl)c1S(=O)(=O)CC [drawing 37, reference compound]
Activity against PHBPU (Pharbitis purpureum): 80%
Activity against POLCO (Polygonum convolvulus [4]): 60%

COSc1c(C)ccc(C(=O)Nc2nnnn2C)c1C [drawing 38]
Activity against ECHCG (Echinochloa crus galli): 100%
Activity against SETVI (Setaria viridis [5]; dosage 80 g/ha): 100%
Activity against ABUTH (Abutilon theophrasti): 100%

COSc1c(C)ccc(C(=O)Nc2nnnn2C)c1C [drawing 39, reference compound]
Activity against ECHCG (Echinochloa crus galli): 40%
Activity against SETVI (Setaria viridis [5]; dosage 80 g/ha): 20%
Activity against ABUTH (Abutilon theophrasti): 80%

CCOSc1c(C)ccc(C(=O)Nc2nnnn2C)c1[N+](=O)[O-] [drawing 43, reference compound]
Activity against AVEFA (Avena fatua [6]; dosage 80 g/ha): 0%
Activity against ALOMY (Alopecurus myosuroides; dosage 80 g/ha): 10%

CCS(=O)(=O)c1c(C)ccc(C(=O)Nc2nnnn2C)c1C [drawing 45]
Activity against AVEFA (Avena fatua [6]; dosage 80 g/ha): 80%
Activity against ALOMY (Alopecurus myosuroides; dosage 80 g/ha): 90%

CCS(=O)(=O)c1c(C)ccc(C(=O)Nc2nnnn2C)c1C [drawing 46, reference compound]
Activity against AVEFA (Avena fatua [6]; dosage 80 g/ha): 20%
Activity against ALOMY (Alopecurus myosuroides; dosage 80 g/ha): 40%

COSc1c(S(C)(=O)=O)ccc(C(=O)Nc2nnnn2C)c1C [drawing 50, reference compound]
Activity against STEME (Stellaria media [7]): 80%
Activity against SETVI (Setaria viridis [5]; dosage 5 g/ha): 40%

CCc1ccc(C(=O)Nc2nnnn2C)c(C)c1S(C)(=O)=O [drawing 51]
Activity against AVEFA (Avena fatua [6]; dosage 5 g/ha): 80%
Activity against ALOMY (Alopecurus myosuroides; dosage 5 g/ha): 60%

Cc1c(C(=O)Nc2nnnn2C)ccc(S(C)(=O)=O)c1S(C)(=O)=O [drawing 52, reference compound]
Activity against AVEFA (Avena fatua [6]; dosage 5 g/ha): 10%
Activity against ALOMY (Alopecurus myosuroides; dosage 5 g/ha): 30%

COSc1c(S(C)(=O)=O)ccc(C(=O)Nc2nnnn2C)c1C [drawing 55, reference compound]
Activity against AVEFA (Avena fatua [6]; dosage 5 g/ha): 0%
Activity against ALOMY (Alopecurus myosuroides; dosage 5 g/ha): 0%

Cc1c(C(=O)Nc2nnnn2C)ccc(S(C)(=O)=O)c1S(C)(=O)=O [drawing 60]
Activity against AVEFA (Avena fatua [6]; Table S, dosage 5 g/ha): 10%
Activity against ALOMY (Alopecurus myosuroides; Table S, dosage 5 g/ha): 30%

CCc1c(C(=O)Nc2nnnn2C)ccc(C)c1SOC [drawing 61]
Activity against ECHCG (Echinochloa crus galli; Table T): 90%
Activity against SETVI (Setaria viridis [5]; Table T, dosage 80 g/ha): 80%

COSc1c(C)ccc(C(=O)Nc2nnnn2C)c1C [drawing 62]
Activity against ECHCG (Echinochloa crus galli; Table T): 40%
Activity against SETVI (Setaria viridis [5]; Table T, dosage 80 g/ha): 20%

COSc1c(C)ccc(C(=O)Nc2nnnn2C)c1[N+](=O)[O-] [drawing 63]
Activity against ECHCG (Echinochloa crus galli; Table T): 20%
Activity against SETVI (Setaria viridis [5]; Table T, dosage 80 g/ha): 0%

Cc1ccc(C(=O)Nc2nnnn2C)c([N+](=O)[O-])c1S(C)(=O)=O [drawing 66]
Activity against ECHCG (Echinochloa crus galli; Table U): 0%
Activity against SETVI (Setaria viridis [5]; Table U, dosage 80 g/ha): 0%

CCc1c(C(=O)Nc2nnnn2C)ccc(C)c1SOC [drawing 67]
Activity against POLCO (Polygonum convolvulus [8]; Table V, dosage 5 g/ha): 60%

CCc1c(C(=O)Nc2nnnn2C)ccc(Br)c1SOC [drawing 69]
Activity against POLCO (Polygonum convolvulus [8]; Table V, dosage 5 g/ha): 20%

CCc1c(C(=O)Nc2nnnn2C)ccc(C)c1S(C)(=O)=O [drawing 70]
Activity against POLCO (Polygonum convolvulus [8]; Table W, dosage 20 g/ha): 70%

CCc1c(C(=O)Nc2nnnn2C)ccc(Cl)c1S(C)(=O)=O [drawing 71]
Activity against POLCO (Polygonum convolvulus [8]; Table W, dosage 20 g/ha): 50%

CCOSc1c(CC)ccc(C(=O)Nc2nnnn2C)c1CC [drawing 73]
Activity against POLCO (Polygonum convolvulus [8]; Table X, dosage 20 g/ha): 60%

CCc1c(C(=O)Nc2nnnn2C)ccc(Cl)c1S(=O)(=O)CC [drawing 76]
Activity against POLCO (Polygonum convolvulus [8]; Table Y, dosage 20 g/ha): 70%

CCOSc1c(OC)ccc(C(=O)Nc2nnnn2C)c1C [reference compound]
Activity against AVEFA (Avena fatua [6]; dosage 80 g/ha): 20%
Activity against ALOMY (Alopecurus myosuroides; dosage 80 g/ha): 40%

CCS(=O)(=O)c1c(C)ccc(C(=O)Nc2nnnn2C)c1[N+](=O)[O-] [reference compound]
Activity against AVEFA (Avena fatua [6]; dosage 80 g/ha): 0%
Activity against ALOMY (Alopecurus myosuroides; dosage 80 g/ha): 10%

COSc1c(C(F)(F)F)ccc(C(=O)Nc2nnnn2C)c1C [reference compound]
Activity against STEME (Stellaria media [7]): 80%
Activity against SETVI (Setaria viridis [5]; dosage 5 g/ha): 80%

Cc1c(C(=O)Nc2nnnn2C)ccc(Cl)c1S(C)(=O)=O [reference compound]
Activity against AVEFA (Avena fatua [6]; dosage 5 g/ha): 20%
Activity against ALOMY (Alopecurus myosuroides; dosage 5 g/ha): 20%

COSc1cccc(C(=O)Nc2nnnn2C)c1C [reference compound]
Activity against AVEFA (Avena fatua [6]; dosage 5 g/ha): 20%
Activity against ALOMY (Alopecurus myosuroides; dosage 5 g/ha): 10%
